Each block holds one molecule with its values, some of them ahead of it.
How the values were obtained:
[1] = test system: ATP aptamer (DNA, aptamer) AATTCTGGGGGAGCCTTTTGTGGGTAGGGCGGGTTGGTTTTGCCCCGGAGGAGGAATT; test: structure-switching FAM/BHQ1 fluorescence quenching; conditions: 300 mM NaCl, 5 mM MgCl2, 20 mM Tris-HCl, pH 7.4; for binding: 2 M CDHP, AD-13 hybridized, 1 mM nucleotide tested
[2] = test system: Scrambled MG aptamer (RNA, other) ACCGUUGCCGGACGAGACUGAUACGCGGAAGUCGCAAG; test: fluorescence spectrum; conditions: 100 nM scrambled RNA
[3] = test system: Malachite green (MG) aptamer (RNA, aptamer) GGAUCCCGACUGGCGAGAGCCAGGUAACGAAUGGAUCC; test: fluorescence light-up titration of MG; conditions: 100 mM KCl, 5 mM MgCl2; 10 mM Na-HEPES, pH 7.4; 100 nM aptamer; no CDHP
[4] = test system: PS2.M (DNA, G4) GTGGGTAGGGCGGGTTGG; test: ligand fluorescence titration; conditions: 100 mM KCl; 10 mM Tris-HCl, pH 7.6; no CDHP
[5] = test system: Malachite green (MG) aptamer (RNA, aptamer) GGAUCCCGACUGGCGAGAGCCAGGUAACGAAUGGAUCC; test: fluorescence spectrum; conditions: 100 mM KCl, 5 mM MgCl2; 10 mM HEPES, pH 7.4; 1 μM CV; also in 2 M CDHP
[6] = test system: Cortisol aptamer (DNA, aptamer) CTCTTGGGACGACGCCCGCATGTTCCATGGATAGTCTTGACTAGTCGTCCC; test: aptasensor strand-displacement fluorescence (FAM/BHQ1); conditions: aqueous buffer and 2 M CDHP; 3'-FAM signaling strand GTCGTCCCAAGAG hybridized; 1-10 ng/ml cortisol

- EC50 ([1]; antisense DNA AD-13 displaced, no CDHP): 384000 nM
Compound: Nc1ncnc2c1ncn2[C@@H]1O[C@H](COP(=O)(O)OP(=O)(O)OP(=O)(O)O)[C@@H](O)[C@H]1O

- binding [1]: no
Compound: Nc1ccn([C@@H]2O[C@H](COP(=O)(O)OP(=O)(O)OP(=O)(O)O)[C@@H](O)[C@H]2O)c(=O)n1

- binding [2]: no
- Kd [3]: 257.3 nM
Compound: CN(C)c1ccc(C(=C2C=CC(=[N+](C)C)C=C2)c2ccccc2)cc1

- binding [1]: no
Compound: O=c1ccn([C@@H]2O[C@H](COP(=O)(O)OP(=O)(O)OP(=O)(O)O)[C@@H](O)[C@H]2O)c(=O)[nH]1

- binding [1]: no
Compound: Nc1nc2c(ncn2[C@@H]2O[C@H](COP(=O)(O)OP(=O)(O)OP(=O)(O)O)[C@@H](O)[C@H]2O)c(=O)[nH]1

- Kd [4]: 1444.7 nM
Compound: Cc1ccc2c(c1)sc(-c1ccc(N(C)C)cc1)[n+]2C

- Kd [4]: 520.6 nM
Compound: CCc1c(C)c2cc3nc(cc4nc(cc5c(CC)c(C)c(cc1[nH]2)n5C)C(C)=C4CCC(=O)O)C(CCC(=O)O)=C3C

- binding [5]: no
Compound: CN(C)c1ccc(C(=C2C=CC(=[N+](C)C)C=C2)c2ccc(N(C)C)cc2)cc1

- binding [6]: yes
Compound: C[C@]12CCC(=O)C=C1CC[C@@H]1[C@@H]2[C@@H](O)C[C@@]2(C)[C@H]1CC[C@]2(O)C(=O)CO

Reference: publication PMC10783497 (2023)
